Test results from publication PMC8079033, “Design, synthesis, anticancer evaluation, and molecular modelling studies of novel tolmetin derivatives as potential VEGFR-2 inhibitors and apoptosis inducers” (Journal of Enzyme Inhibition and Medicinal Chemistry, 2021).

Tests used:
ACHN = experiment: NCI 60-cell line one-dose antiproliferative screen (SRB); type: cell-based; conditions: Homo sapiens, read-out: growth inhibition % (GI%)
Experimental: (§1) Anticancer activity screening of the newly synthesised compounds was measured in vitro utilising 60 different human tumour cell lines provided by US National Cancer Institute according to previously reported standard procedure[41–43] as follows: Cells are inoculated into 96-well microtiter plates in 100 ml. After cell inoculation, the microtiter plates are incubated at 37 °C, 5% CO2, 95% air, and 100% relative humidity for 24 h prior to addition of experimental compounds. After 24 h, two plates of each cell line are fixed in situ with TCA, to represent a measurement of the cell population for each cell line at the time of compound addition (Tz). Experimental compounds are solubilised in dimethyl sulfoxide at 400-fold the desired final maximum test concentration and stored frozen prior to use. At the time of compound addition, an aliquot of frozen concentrate is thawed and diluted to twice the desired final maximum test concentration with a complete medium containing […] gentamicin. Aliquots of […] of the compounds dilutions are added to the appropriate microtiter wells already containing 100 ml of medium, resulting in the required final compound concentration. Following compound addition, the plates are incubated for an additional 48 h at 37 °C, 5% CO2, 95% air, and 100% relative humidity. For adherent cells, the assay is terminated by the addition of cold trichloroacetic acid (TCA). Cells are fixed in situ by the gentle addition of 50 ml of cold 50% (w/v) TCA (final concentration, 10% TCA) and incubated for […] at 4 °C. The supernatant is discarded, and the plates are washed five times with tap water and air-dried. Sulforhodamine B (SRB) solution (100 ml) at 0.4% (w/v) in 1% acetic acid is added to each well, and plates are incubated for 10 min at room temperature. After staining, the unbound dye is removed by washing five times with 1% acetic acid and the plates are air-dried. The bound stain is subsequently solubilised with a 10 mM trizma base, and the absorbance is read on an automated plate reader at a wavelength of 515 nm. For suspension cells, the methodology is the same except that the assay is terminated by fixing settled cells at the bottom of the wells by gently adding 50 ml of 80% TCA (final concentration, 16% TCA). Using the absorbance measurements [time zero, (Tz), control growth, (C), and test growth in the presence of compound (Ti)], the percentage growth is calculated for each compound. The One-dose data are reported as a mean graph of the percent growth of treated cells. The reported number is growth relative to the no-compound control, and relative to the time zero number of cells. This allows the detection of both growth inhibition and lethality.
(§2) Fifteen newly synthesised compounds were tested for their in vitro antiproliferative activity by the National Cancer Institute (NCI), Maryland, USA[50], under the Developmental Therapeutic Program (DTP)[41]^,[43]^,[51]^,[52]. The tested compounds were evaluated at a concentration of 10 µM on a panel of 60 tumour cell lines representing leukaemia and non-small cell lung, colon, CNS, melanoma, ovarian, renal, prostate, and breast cancers. The antiproliferative activity was presented by the NCI as percent growth of the treated cells and is presented in Table 1 as growth inhibition percentage (GI%) achieved by the tested compounds.

CAKI-1 = experiment: as above; type: cell-based; conditions: Homo sapiens, read-out: growth inhibition % (GI%)
Experimental: as §1, §2

HOP-62 = experiment: as above; type: cell-based; conditions: Homo sapiens, read-out: growth inhibition % (GI%)
Experimental: as §1, §2

HOP-92 = experiment: as above; type: cell-based; conditions: Homo sapiens, read-out: growth inhibition % (GI%)
Experimental: as §1, §2

IGROV1 = experiment: as above; type: cell-based; conditions: Homo sapiens, IGROV-1, read-out: growth inhibition % (GI%)
Experimental: as §1, §2

K-562 = experiment: as above; type: cell-based; conditions: Homo sapiens, K562, read-out: growth inhibition % (GI%)
Experimental: as §1, §2

LOX IMVI = experiment: as above; type: cell-based; conditions: Homo sapiens, read-out: growth inhibition % (GI%)
Experimental: as §1, §2

MCF7 = experiment: as above; type: cell-based; conditions: Homo sapiens, read-out: growth inhibition % (GI%)
Experimental: as §1, §2

MDA-MB-231/ATCC = experiment: as above; type: cell-based; conditions: Homo sapiens, read-out: growth inhibition % (GI%)
Experimental: as §1, §2

MDA-MB-435 = experiment: as above; type: cell-based; conditions: Homo sapiens, read-out: growth inhibition % (GI%)
Experimental: as §1, §2

MDA-MB-468 = experiment: as above; type: cell-based; conditions: Homo sapiens, read-out: growth inhibition % (GI%)
Experimental: as §1, §2

NCI-H226 = experiment: as above; type: cell-based; conditions: Homo sapiens, read-out: growth inhibition % (GI%)
Experimental: as §1, §2

NCI-H522 = experiment: as above; type: cell-based; conditions: Homo sapiens, read-out: growth inhibition % (GI%)
Experimental: as §1, §2

NCI/ADR-RES = experiment: as above; type: cell-based; conditions: Homo sapiens, read-out: growth inhibition % (GI%)
Experimental: as §1, §2

OVCAR-5 = experiment: as above; type: cell-based; conditions: Homo sapiens, read-out: growth inhibition % (GI%)
Experimental: as §1, §2

OVCAR-8 = experiment: as above; type: cell-based; conditions: Homo sapiens, read-out: growth inhibition % (GI%)
Experimental: as §1, §2

PC-3 = experiment: as above; type: cell-based; conditions: Homo sapiens, read-out: growth inhibition % (GI%)
Experimental: as §1, §2

SF-268 = experiment: as above; type: cell-based; conditions: Homo sapiens, read-out: growth inhibition % (GI%)
Experimental: as §1, §2

SF-295 = experiment: as above; type: cell-based; conditions: Homo sapiens, read-out: growth inhibition % (GI%)
Experimental: as §1, §2

SF-539 = experiment: as above; type: cell-based; conditions: Homo sapiens, read-out: growth inhibition % (GI%)
Experimental: as §1, §2

SK-MEL-5 = experiment: as above; type: cell-based; conditions: Homo sapiens, read-out: growth inhibition % (GI%)
Experimental: as §1, §2

SN 12 C = experiment: as above; type: cell-based; conditions: Homo sapiens, SN12C, read-out: growth inhibition % (GI%)
Experimental: as §1, §2

SNB-19 = experiment: as above; type: cell-based; conditions: Homo sapiens, read-out: growth inhibition % (GI%)
Experimental: as §1, §2

SNB-75 = experiment: as above; type: cell-based; conditions: Homo sapiens, read-out: growth inhibition % (GI%)
Experimental: as §1, §2

SW-620 = experiment: as above; type: cell-based; conditions: Homo sapiens, read-out: growth inhibition % (GI%)
Experimental: as §1, §2

T-47D = experiment: as above; type: cell-based; conditions: Homo sapiens, T47D, read-out: growth inhibition % (GI%)
Experimental: as §1, §2

U251 = experiment: as above; type: cell-based; conditions: Homo sapiens, U-251, read-out: growth inhibition % (GI%)
Experimental: as §1, §2

UACC-62 = experiment: as above; type: cell-based; conditions: Homo sapiens, read-out: growth inhibition % (GI%)
Experimental: as §1, §2

UO-31 = experiment: as above; type: cell-based; conditions: Homo sapiens, read-out: growth inhibition % (GI%)
Experimental: as §1, §2

A498 = experiment: NCI 60-cell line one-dose antiproliferative screen (SRB); type: cell-based; conditions: Homo sapiens, read-out: growth inhibition % (GI%)
Experimental: as §1, §2

A549/ATCC = experiment: as above; type: cell-based; conditions: Homo sapiens, read-out: growth inhibition % (GI%)
Experimental: as §1, §2

EKVX = experiment: as above; type: cell-based; conditions: Homo sapiens, read-out: growth inhibition % (GI%)
Experimental: as §1, §2

HCT-116 = experiment: as above; type: cell-based; conditions: Homo sapiens, read-out: growth inhibition % (GI%)
Experimental: as §1, §2

KM12 = experiment: as above; type: cell-based; conditions: Homo sapiens, read-out: growth inhibition % (GI%)
Experimental: as §1, §2

M14 = experiment: as above; type: cell-based; conditions: Homo sapiens, read-out: growth inhibition % (GI%)
Experimental: as §1, §2

MALME-3M = experiment: as above; type: cell-based; conditions: Homo sapiens, read-out: growth inhibition % (GI%)
Experimental: as §1, §2

NCI-H23 = experiment: as above; type: cell-based; conditions: Homo sapiens, read-out: growth inhibition % (GI%)
Experimental: as §1, §2

NCI-H322M = experiment: as above; type: cell-based; conditions: Homo sapiens, read-out: growth inhibition % (GI%)
Experimental: as §1, §2

OVCAR-4 = experiment: as above; type: cell-based; conditions: Homo sapiens, read-out: growth inhibition % (GI%)
Experimental: as §1, §2

RPMI-8226 = experiment: as above; type: cell-based; conditions: Homo sapiens, read-out: growth inhibition % (GI%)
Experimental: as §1, §2

SR = experiment: as above; type: cell-based; conditions: Homo sapiens, read-out: growth inhibition % (GI%)
Experimental: as §1, §2

UACC-257 = experiment: as above; type: cell-based; conditions: Homo sapiens, read-out: growth inhibition % (GI%)
Experimental: as §1, §2

Structure (SMILES) | inhibition at 10 µM (ACHN) [%] | inhibition at 10 µM (CAKI-1) [%] | inhibition at 10 µM (HOP-92) [%] | inhibition at 10 µM (IGROV1) [%] | inhibition at 10 µM (K-562) [%] | inhibition at 10 µM (LOX IMVI) [%] | inhibition at 10 µM (MCF7) [%] | inhibition at 10 µM (MDA-MB-231/ATCC) [%] | inhibition at 10 µM (MDA-MB-435) [%] | inhibition at 10 µM (MDA-MB-468) [%] | inhibition at 10 µM (NCI-H226) [%] | inhibition at 10 µM (NCI-H522) [%] | inhibition at 10 µM (NCI/ADR-RES) [%] | inhibition at 10 µM (OVCAR-5) [%] | inhibition at 10 µM (OVCAR-8) [%] | inhibition at 10 µM (PC-3) [%] | inhibition at 10 µM (SF-268) [%] | inhibition at 10 µM (SF-539) [%] | inhibition at 10 µM (SK-MEL-5) [%] | inhibition at 10 µM (SN 12 C) [%] | further results
Cc1ccc(C(=O)c2ccc(CC(=O)NN=C3C(=O)Nc4ccc(OC(F)(F)F)cc43)n2C)cc1 [Compound 6c, 2–(1-Methyl-5–(4-methylbenzoyl)-1H-pyrrol-2-yl)-N′-(2-oxo-5-(trifluoromethoxy)indolin-3-ylidene)acetohydrazide] | < 10 | 12.6 | < 10 | < 10 | < 10 | < 10 | < 10 | < 10 | < 10 | < 10 | < 10 | 11.9 | < 10 | < 10 | < 10 | < 10 | < 10 | < 10 | < 10 | < 10 | inhibition at 10 µM (HOP-62): 11.1%; inhibition at 10 µM (SF-295): < 10%; inhibition at 10 µM (SNB-19): < 10%; inhibition at 10 µM (SNB-75): 37.1%; inhibition at 10 µM (SW-620): < 10%; inhibition at 10 µM (T-47D): < 10%; inhibition at 10 µM (U251): < 10%; inhibition at 10 µM (UACC-62): < 10%; inhibition at 10 µM (UO-31): 24.3%; melting point: 157 to 159 °C
Cc1ccc(C(=O)c2ccc(CC(=O)NN=C3C(=O)Nc4ccc(Br)cc43)n2C)cc1 [Compound 6b, N′-(5-Bromo-2-oxoindolin-3-ylidene)-2–(1-methyl-5–(4-methylbenzoyl)-1H-pyrrol-2-yl)acetohydrazide] | < 10 | 15.4 | < 10 | < 10 | 10.6 | 10 | < 10 | < 10 | < 10 | < 10 | < 10 | 13.2 | < 10 | < 10 | < 10 | < 10 | < 10 | < 10 | < 10 | < 10 | inhibition at 10 µM (A498): 10.2%; inhibition at 10 µM (A549/ATCC): < 10%; inhibition at 10 µM (EKVX): < 10%; inhibition at 10 µM (HCT-116): < 10%; inhibition at 10 µM (KM12): < 10%; inhibition at 10 µM (M14): < 10%; inhibition at 10 µM (MALME-3M): < 10%; inhibition at 10 µM (NCI-H23): 13.7%; inhibition at 10 µM (NCI-H322M): < 10%; inhibition at 10 µM (OVCAR-4): 10.1%; inhibition at 10 µM (RPMI-8226): < 10%; inhibition at 10 µM (SNB-19): < 10%; inhibition at 10 µM (SNB-75): 36.3%; inhibition at 10 µM (SR): < 10%; inhibition at 10 µM (U251): 34.4%; inhibition at 10 µM (UACC-257): < 10%; inhibition at 10 µM (UACC-62): < 10%; inhibition at 10 µM (UO-31): 25%; melting point: 195 to 197 °C
